According to US9739733B2, “Methods for monitoring tight clot formation” (T2 Biosystems, Inc., priority 2012, dated 2017):

What was measured:
[1] = system: platelets in blood samples; test: T2MR ADP activation titration in Triton X-100 coated polypropylene tubes; format: cell-based, human; details: Triton X-100 coated tube
Procedure: Platelet-induced clot contraction was used for measuring platelet activity and inhibition using a formulation of reptilase (RF), factor XIIIa (FXIIIa), and platelet agonist such as arachidonic acid (AA) or adenosine diphosphate (ADP). The RF and FXIIIa induce the formation of a fibrin mesh rapidly without activating platelets. This occurs rapidly as compared to clot contraction. Briefly, blood samples were activated with varying levels of ADP in 0.2 mL polypropylene tubes coated with Triton X-100. […] Additionally, levels below […] are now able to show a clot contraction signal when the polypropylene surface is coated with Triton X-100. Furthermore, this signal is much stronger than that previously observed for ADP activated samples in polypropylene tubes without coating.

platelets in whole blood [2] = test: T2MR platelet-induced clot contraction with platelet agonist, uncoated polypropylene tube; format: cell-based, human
From the text: Platelet-induced clot contraction was used for measuring platelet activity and inhibition using a formulation of reptilase (RF), factor XIIIa (FXIIIa), and platelet agonist such as arachidonic acid (AA) or adenosine diphosphate (ADP). The RF and FXIIIa induce the formation of a fibrin mesh rapidly without activating platelets. This occurs rapidly as compared to clot contraction. In developing a platelet activity assay for the agonist arachidonic acid (AA) we were able to see reproducible […] signatures that titrated with the concentration of AA as expected ([…] curves acquired from whole blood with 0.5 mM, 1.0 mM, and 1.5 mM AA). In a typical clot contraction signal there is an upper […] signal that increases rapidly between 5 and 10 minutes and the appearance of a lower […] signal around the same point in time. The upper signal corresponds to water excreted from the clot and the lower signal corresponds to water trapped in the contracted clot. The lowest level has the slowest kinetics. […] In developing a platelet activity assay for the agonist ADP we encountered a problem with reproducibility. For example, in triplicate measures (3 samples obtained in parallel from freshly drawn blood) the clot contraction signal might appear for only one sample and/or the triplicate measures might vary in the signal intensity of the clot contraction signal. Reproducible results were obtained from AA, but not ADP. This is believed to result from the fact that AA is a stronger platelet activator than ADP. This conclusion is supported by the following observations. […] Second, aging the blood could lead to stronger clot contraction signals, presumably due to basal thrombin activation that led to more platelet induced clot contraction. Third, adding low levels of thrombin could lead to more platelet induced clot contraction. Therefore, there is a difference in the strength of platelet activation for AA and ADP.

[3] = T2MR fibrinogen assay with thrombin; set-up: species or system human; details: 45 μM MnSO4 in buffer diluent
Procedure: T2MR measures the formation of fibrin directly in the whole blood or plasma in the presence of thrombin. The solution of thrombin (STAGO, 5 U/mL) is added to the diluted solution of plasma (or blood) and the change in T2 signal is monitored. The sample begins to clot immediately upon addition of thrombin, resulting in a rapid decrease in T2 signal. In order to achieve better sample relaxation rate and reduce noise in the measured T2 signal the paramagnetic material (MnSO4) is added to the buffer diluent (STAGO, Owren-Koller buffer), with a final concentration of the MnSO4 in diluent of 45 μM. […] The buffer diluent containing paramagnetic material is used to prepare thrombin 5 U/mL stock by diluting 80 U/mL stock and to prepare standard dilutions for the calibration curve.

platelets in whole blood [4] = details: 5-20 μM epinephrine
Procedure: A titration of epinephrine ranging from 5-20 μM was added to the activation cocktail (comprised of reptilase, factor XIIIa, calcium, and platelet activator). 4 μL of the activation cocktail was added to 36 μL of whole blood in a coated tube. The tube containing the reaction was placed in a T2MR reader. T2MR relaxation curve data was processed with an Inverse Laplace transformation algorithm.

platelets = test: Tube-dried collagen as platelet activator, T2MR; format: cell-based; details: 2 micrograms dried in microtube; whole blood and RBC-depleted plasma
Procedure: Collagen is a potent activator of platelets, and recognition of exposed collagen from the cellular matrix is one of the in vivo signals for platelet activation. […] To prepare the tube, 2 micrograms (2 μL of a 1 mg/ml solution) was deposited in the bottom of a microtube and the tube placed at 37° C. for 2-5 hours. A tube prepared in this way can be kept at room temperature or at 37° C. for several weeks. To measure a T2MR signature 34 μL of citrated whole blood (or RBC-depleted blood) were added to the tube at 37 degrees; after 1 minute 2 μL of 0.2M CaCl2 was added and the sample placed in the magnet for relaxation measurements and analysis.

[5] = PT clotting time, T2MR and Stago; set-up: species or system human; details: spiked 10 ng/mL-1000 ng/mL
Procedure: Clotting times were measured by […] by first establishing a time zero T2 value (i.e., by taking the first point or some sort of average or linear fit to the first 5-10 data points) of the T2 time curve, and second identifying the time point (i.e., the clotting time or PT time) in the T2 time curve when the T2 value had changed by a predetermined amount (e.g. 5% or 10%) indicative of clotting in the sample. From the observed PT clotting time the INR was calculated using the methods described in Jan et al., Clin. Chem. 35:840 (1989). […] 18 normal samples and 24 abnormal samples were tested against a reference range established by 20 normal samples. Abnormal samples with prolonged PT times were obtained by spiking increasing levels of the anti-Xa inhibitor Rivaroxiban (10 ng/mL-1000 ng/mL). Correlation with TEG clotting time was obtained across >40 normal patient samples with non-optimized R2 correlation of >0.8. (see FIG. 14B). PT time correlations with Stago for plasma (see FIG. 14D) and with Hemochron for whole blood (see FIG. 14C) were also found.

platelet activity = test: T2MR platelet inhibition, heparin blood activated by AA+RF; format: cell-based, human; details: 600 μM aspirin ex vivo
Procedure: In this experiment platelet inhibition was monitored by the addition of 600 μM aspirin ex vivo to heparin blood prior to activation by AA+RF (samples were tested with and without aspirin). […] These studies confirmed that the clot signature was dependent on platelet activity.

Nc1ncnc2c1ncn2[C@@H]1O[C@H](COP(=O)(O)OP(=O)(O)O)[C@@H](O)[C@H]1O [ADP, adenosine diphosphate]
clot formation T2MR signal ([1]; 2.5 mM ADP): partial clot formation is observed
clot formation T2MR signal ([1]; 0.5 and 1 mM ADP): no clot formation signal is observed
clot formation T2MR signal ([1]; 5, 10, 20 mM ADP): complete clot formation is observed
clot retraction after gel phase (platelets in whole blood [2]; ADP activation): retraction does not occur
platelet-induced clot contraction (platelets in whole blood [2]; ten-fold excess (over standard levels) of ADP): weak and irreproducible platelet-induced clot contraction

O=S(=O)([O-])[O-].[Mn+2] [MnSO4]
effect on the clotting process [3]: no significant effect

CNC[C@H](O)c1ccc(O)c(O)c1 [epinephrine]
sample response (clot contraction) (platelets in whole blood [4]): responsive
timing of clot contraction (platelets in whole blood [4]): dose dependent

collagen
T2MR clot peak (platelets): effectively generate a T2MR clot peak

CCCCC/C=C\C/C=C\C/C=C\C/C=C\CCCC(=O)O [AA, arachidonic acid]
concentration that typically causes clot retraction (platelets in whole blood [2]): 0.5 to 1 mM
platelet-induced clot contraction (platelets in whole blood [2]; typical level of AA): strong platelet-induced clot contraction

O=C(NC[C@H]1CN(c2ccc(N3CCOCC3=O)cc2)C(=O)O1)c1ccc(Cl)s1 [Rivaroxiban]
PT times [5]: prolonged

CC(=O)Oc1ccccc1C(=O)O [aspirin, acetylsalicylic acid]
clot-associated T2 signal (platelet activity): dramatically diminished or absent
